According to PMC11676896, “Protective Action of Cannabidiol on Tiamulin Toxicity in Humans—In Vitro Study” (International Journal of Molecular Sciences, 2024):
Structures can show the parent of a compound that is named as a salt.

Key:
Experiment in all cases: Hoechst 33342/propidium iodide double staining (apoptosis and necrosis)
Assay type in all cases: cell-based
HEK-293 cells = conditions: HEK-293, 72 h of incubation
Excerpt: (§1) After assessing the cytotoxicity of tiamulin and its mixtures with CBD, cell death was examined using the Hoechst 33342/propidium iodide (PI) double staining test (Figure 6). The intensity of the blue color and the presence of fragmented, blue-stained cellular components indicated apoptotic cell death after Hoechst 33342 staining. Necrotic cell death was identified by red fluorescence after PI staining. […] Mixtures of tiamulin and CBD caused a decrease in both apoptotic and necrotic cell death.
(§2) The analysis of type and level of cellular death in the control and tested cultures was evaluated using fluorochrome staining, Hoechst 33342 (Sigma, St. Louis, MO, USA) and propidium iodide (Sigma, St. Louis, MO, USA) mixed for apoptosis and necrosis evaluation. Using an Axiaert 200 M fluorescence micrscope (Zeiss, Obercochem, Germany), dead cells were analyzed morphologically. Cells with pink fluorescent nuclei were considered necrotic, whereas those with blue fluorescent nuclei (fragmented and/or with condensed chromatin) were considered apoptotic.

HepG2 cells = conditions: HepG2, 72 h of incubation
Excerpt: as §1, §2

SH-SY5Y cells = conditions: 72 h of incubation
Excerpt: as §1, §2

SMILES: C=C[C@]1(C)C[C@@H](OC(=O)CSCCN(CC)CC)[C@]2(C)[C@H](C)CC[C@]3(CCC(=O)[C@H]32)[C@@H](C)[C@@H]1O [T, tiamulin fumarate]
- apoptotic and necrotic cell death (HEK-293 cells): significant apoptotic and necrotic profiles
- apoptotic and necrotic cell death (HepG2 cells): significant apoptotic and necrotic profiles
- apoptotic and necrotic cell death (SH-SY5Y cells): slight increase in apoptotic and necrotic cells
